Several values for one entry are separate records, joined by “and”; a condition that tells them apart may be missing. Equal entries are not always repeated.

Assay [1] has as its system NCI-H358 cells (K-Ras G12C). Nature of the assay: Potency assay: pERK in NCI-H358 cells. The format is cell-based, human. The settings on record: Homo sapiens, NCI-H358; H358 KRAS G12C; read-out: pERK EC50. Summed up:
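Compounds are dosed as ten 3-fold dilutions from a 10 mM DMSO stock, in duplicate, and left on cells for 4 h at 37 °C, 5% CO2. Phospho-ERK1/2 is then quantified by AlphaLISA SureFire Ultra or In-Cell Western, and IC50 is derived from a 4-parameter sigmoid against log concentration.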

The next assay deals with NRAS G12C (Homo sapiens (Human), UniProt P01111+P62937, G12C). Kind of assay: Ras-Raf (BRAF RBD) disruption / FRET / MOA assay, NRAS G12C. The format is biochemical. The settings on record: read-out: IC50* NRAS G12C FRET data. The method in brief: (§1)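 Ternary complex formation (Ras–compound–cyclophilin A) displacing BRAF RBD, monitored by TR-FRET. Three hours at 25° C with compound (top 30 μM final), then 1.5 h with the labelled antibodies. Lower ratio than DMSO indicates disruption; IC50 reported.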

In the next assay the target is NRAS Q61K (Homo sapiens (Human), UniProt P01111+P62937, Q61K). Nature of the assay: Ras-Raf (BRAF RBD) disruption / FRET / MOA assay, NRAS Q61K. The format is biochemical. The settings on record: NRAS Q61K; Ras-Raf disruption/FRET/MOA assay; read-out: IC50* NRAS Q61K FRET data. Summed up: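 Compounds were tested as a 10-point 3-fold dilution series from 30 μM final for their ability to drive ternary complex formation between nucleotide-loaded Ras and cyclophilin A, displacing the BRAF RBD. After 3 h at 25° C., anti-His Eu-W1024 (10 nM) and anti-GST allophycocyanin (50 nM) were added for 1.5 h. A TR-FRET ratio decrease versus DMSO gave IC50.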

The target of another assay is KRAS G12S (Homo sapiens (Human), UniProt P01116+P62937, G12S). Kind of assay: Ras-Raf (BRAF RBD) disruption / FRET / MOA assay, KRAS G12S. It is filed as biochemical. The settings on record: Ras-Raf disruption/FRET/MOA assay; class symbols; read-out: KRAS G12S FRET data IC50. Summed up: as §1
Sequence of KRAS G12S (P01116-2 other isoform, or with tags, fused parts or gaps G12S): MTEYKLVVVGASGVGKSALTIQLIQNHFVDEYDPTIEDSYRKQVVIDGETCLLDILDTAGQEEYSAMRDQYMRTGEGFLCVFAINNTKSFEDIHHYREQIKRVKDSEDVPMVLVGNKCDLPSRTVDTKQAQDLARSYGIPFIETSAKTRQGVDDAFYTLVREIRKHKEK
Sequence of KRAS G12S (P62937 whole entry): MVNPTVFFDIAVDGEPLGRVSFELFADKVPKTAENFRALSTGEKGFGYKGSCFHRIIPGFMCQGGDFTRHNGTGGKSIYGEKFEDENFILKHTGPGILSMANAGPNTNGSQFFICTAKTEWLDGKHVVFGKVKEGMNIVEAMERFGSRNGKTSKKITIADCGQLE

Sequence of NRAS G12C (P01111 whole entry G12C): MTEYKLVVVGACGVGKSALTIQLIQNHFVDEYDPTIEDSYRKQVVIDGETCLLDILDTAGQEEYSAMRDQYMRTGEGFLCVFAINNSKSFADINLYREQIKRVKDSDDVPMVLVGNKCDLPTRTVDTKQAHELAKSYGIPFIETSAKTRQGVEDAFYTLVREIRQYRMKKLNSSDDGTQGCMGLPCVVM
Sequence of NRAS G12C (P62937 whole entry): as the sequence (P62937 whole entry) above
Sequence of NRAS Q61K (P01111 whole entry Q61K): as the sequence (P01111 whole entry G12C) above, with C12G, Q61K counted along it
Sequence of NRAS Q61K (P62937 whole entry): as the sequence (P62937 whole entry) above

For the compound `C=CC(=O)N1CC[C@H](C(=O)N(C)[C@H](C(=O)N[C@H]2Cc3cccc(c3)-c3ccc4c(c3)c(c(-c3cnccc3[C@H](C)OC)n4CC)CC(C)(C)COC(=O)[C@@H]3CCCN(N3)C2=O)C(C)C)C1` (single isomer, unassigned) [Example A115], the EC50 in assay [1] is below 5000 nM. Also, the IC50 on NRAS G12C was 10 to 100 nM and 100 to 1000 nM; on NRAS Q61K, 1000 to 10000 nM; on KRAS G12S it was 1000 to 10000 nM.
As for `C=CC(=O)N1CC[C@H](C(=O)N(C)[C@H](C(=O)N[C@H]2Cc3cc(O)cc(c3)-c3ccc4c(c3)c(c(-c3cc(N5CC(OC)C5)ccn3)n4CC)CC(C)(C)COC(=O)[C@@H]3CCCN(N3)C2=O)C(C)C)C1` [Example A104], in assay [1], the EC50 is below 5000 nM. Also, the IC50 on NRAS G12C fell in the range of 10 to 100 nM; at NRAS Q61K it was 1000 to 10000 nM; on KRAS G12S it was 1000 to 10000 nM.
Turning to `C=CC(=O)N1CC[C@H](C(=O)N(C)[C@H](C(=O)N[C@H]2Cc3cc(O)cc(c3)-c3ccc4c(c3)c(c(-c3cc(C#N)cnc3COC)n4CC)CC(C)(C)COC(=O)[C@@H]3CCCN(N3)C2=O)C(C)C)C1` [Example A105], in assay [1], the EC50 was below 5000 nM. Also, the IC50 was 10 to 100 nM on NRAS G12C, 100 to 1000 nM on NRAS Q61K and 100 to 1000 nM at KRAS G12S.
On to `C=CC(=O)N1CC[C@H](C(=O)N(C)[C@H](C(=O)N[C@H]2Cc3cc(O)cc(c3)-c3ccc4c(c3)c(c(-c3cn(C)cn3)n4CC)CC(C)(C)COC(=O)[C@@H]3CCCN(N3)C2=O)C(C)C)C1` [Example A113], for which, in assay [1], the EC50 was below 5000 nM. The IC50 at NRAS G12C was 100 to 1000 nM; on NRAS Q61K, above 10000 nM; on KRAS G12S, 1000 to 10000 nM.
Taken in the same sequence, the figures for `C=CS(=O)(=O)N1CC[C@H](C(=O)N(C)[C@H](C(=O)N[C@H]2Cc3cc(O)cc(c3)-c3ccc4c(c3)c(c(-c3cncnc3)n4CC)CC(C)(C)COC(=O)[C@@H]3CCCN(N3)C2=O)C(C)C)C1` [Example A172] were below 5000 nM, 10 to 100 nM, 1000 to 10000 nM and 1000 to 10000 nM.
For `CCn1c(-c2cccnc2[C@H](C)OC)c2c3cc(ccc31)-c1cccc(c1)C[C@H](NC(=O)[C@H](C(C)C)N1CC[C@@]3(CCN(C(=O)C#C[C@@H]4COCCN4C4COC4)C3)C1=O)C(=O)N1CCC[C@H](N1)C(=O)OCC(C)(C)C2` [Example A566] the same measures were below 5000 nM, 10 to 100 nM, 1000 to 10000 nM and 1000 to 10000 nM.
Taken in the same sequence, the figures for `C=CC(=O)N1CCC2(C1)CN(C(=O)N(C)[C@H](C(=O)N[C@H]1Cc3nc(cs3)-c3ccc4c(c3)c(c(-c3cccnc3[C@H](C)OC)n4CC(F)(F)F)CC(C)(C)COC(=O)[C@@H]3CCCN(N3)C1=O)C(C)C)C2` [Example A603] were below 5000 nM, 10 to 100 nM, 10 to 100 nM and 100 to 1000 nM.
Regarding `CCn1c(-c2cccnc2[C@H](C)OC)c2c3cc(ccc31)-c1cccc(c1)C[C@H](NC(=O)[C@H](C(C)C)N(C)C(=O)N1CCC13CN(C(=O)C#CC(C)(C)N(C)C)C3)C(=O)N1CCC[C@H](N1)C(=O)OCC(C)(C)C2` [Example A672], the EC50 in assay [1] is below 5000 nM. For the same compound, the values for the IC50 at NRAS G12C, on NRAS Q61K and on KRAS G12S were 10 to 100 nM, 100 to 1000 nM and 100 to 1000 nM, respectively.
With `C=CC(=O)N(C)[C@H]1CC1N(C)C(=O)N(C)[C@H](C(=O)N[C@H]1Cc2nc(cs2)-c2ccc3c(c2)c(c(-c2cccnc2[C@H](C)OC)n3CC)CC(C)(C)COC(=O)[C@@H]2CCCN(N2)C1=O)C(C)C` (stereo partly drawn) [Example A738], in assay [1], the EC50 was below 5000 nM. Moreover, the IC50 on NRAS G12C is 100 to 1000 nM; at NRAS Q61K, 100 to 1000 nM; at KRAS G12S, 1000 to 10000 nM.

Values taken from patent publication US11566007B2, “Ras inhibitors” (Revolution Medicines, Inc., priority 2019, dated 2023).
